How the values were obtained:
Format in all cases: in vivo
[1] = tested on: black-grass; test: Test Example 3: weedkilling efficacy through soil treatment; H: black-grass; details: soil treatment
How it was run: (§1)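 Crop and weed responses were judged three weeks after a uniform surface spray of the water-diluted emulsion at the given g/ha rate. Seeds sat beneath about 1.5 cm of sterilized diluvial soil, and boxes stood in a greenhouse at 25 to 30° C.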

[2] = tested on: rapeseed; test: Test Example 3: soil treatment, effect on crop; g: rapeseed; details: soil treatment, treatment dosage 80 g/ha
Description: (§2) Weedkilling Efficacy Test Through Soil Treatment
(§3) Sterilized diluvial soil was introduced into 21 cm long, 13 cm wide, 7 cm deep plastic boxes, and seeds of crabgrass, green foxtail, barnyard grass, wild oat, black-grass, Italian ryegrass, common wind-grass, Indian mallow, redroot pigweed, fig-leafed goosefoot, chickweed, catchweed, birds-eye speedwell, corn, soybean, rice, wheat, beet and rapeseed were each spot-sown, and covered with about 1.5 cm of soil. Next, emulsions of compounds of the present invention prepared according to compounding example 2 were diluted with water to give the specified dosages, and applied uniformly onto the soil surface with a small sprayer. The plants were grown by placing the plastic boxes in a greenhouse at 25 to 30° C., and 3 weeks after the pesticide treatment the effect on each type of plant was investigated on the basis of the assessment criteria of test example 1.
(§4) A: barnyard grass, B: bulrush, C: oval-leafed pondweed, D: crabgrass, E: green foxtail, F: barnyard grass, G: wild oat, H: black-grass, I: Italian ryegrass, J: common wind-grass, K: Indian mallow, L: redroot pigweed, M: fig-leafed goosefoot, N: chickweed, O: catchweed, p: birds-eye speedwell, a: transplanted rice, b: directly sown rice, c: corn, d: soybean, e: wheat, f: beet, g: rapeseed
(§5) Further, pesticide dosage (g/ha) indicates the concentration regulated such that treatment was with only the stated number of grams (g), when calculated per hectare (ha).

[3] = tested on: wheat; test: Test Example 3: soil treatment, effect on crop; e: wheat; details: soil treatment
How it was run: as §1

[4] = tested on: Italian ryegrass; test: Test Example 3: weedkilling efficacy through soil treatment; I: Italian ryegrass; details: soil treatment
How it was run: as §1

[5] = tested on: common wind-grass; test: Test Example 3: weedkilling efficacy through soil treatment; J: common wind-grass; details: soil treatment, treatment dosage 80 g/ha
Description: as §2, §3, §4, §5

[6] = tested on: barnyard grass; test: Test Example 1: weedkilling efficacy, preemergent weed treatment in the submerged state; A: barnyard grass; details: treatment dosage 252 g/ha
How it was run: (§6)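 Visual scores against set criteria were taken 3 weeks after treatment. Compounds, as diluted emulsions at specified g/ha, went onto the water surface of 4 cm-flooded alluvial soil pots on the day weeds were sown and 2.5-leaf rice was transplanted; greenhouse held 25–30 °C.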

[7] = tested on: barnyard grass; test: Test Example 2: weedkilling efficacy, growth period weed treatment in the submerged state; A: barnyard grass; details: treatment dosage 252 g/ha
How it was run: (§7)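 Barnyard grass, bulrush and oval-leafed pondweed sown in alluvial soil under 4 cm flooding, greenhouse 25 to 30° C. At 1-2 leaf stage, water-diluted emulsion applied to the water surface at stated g/ha dosages; effects scored 3 weeks later.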

[8] = tested on: redroot pigweed; test: Test Example 3: weedkilling efficacy through soil treatment; L: redroot pigweed; details: soil treatment, treatment dosage 315 g/ha
How it was run: as §1

[9] = tested on: soybean; test: Test Example 3: soil treatment, effect on crop; d: soybean; details: soil treatment, treatment dosage 315 g/ha
How it was run: as §1

[10] = tested on: fig-leafed goosefoot; test: Test Example 3: weedkilling efficacy through soil treatment; M: fig-leafed goosefoot; details: soil treatment, treatment dosage 315 g/ha
How it was run: as §1

[11] = tested on: oval-leafed pondweed; test: Test Example 1: weedkilling efficacy, preemergent weed treatment in the submerged state; C: oval-leafed pondweed; details: treatment dosage 252 g/ha
How it was run: as §6

[12] = tested on: birds-eye speedwell; test: Test Example 3: weedkilling efficacy through soil treatment; p: birds-eye speedwell; details: soil treatment, treatment dosage 315 g/ha
How it was run: as §1

[13] = tested on: bulrush; test: Test Example 1: weedkilling efficacy, preemergent weed treatment in the submerged state; B: bulrush; details: treatment dosage 252 g/ha
How it was run: as §6

[14] = tested on: directly sown rice; test: Test Example 3: soil treatment, effect on crop; b: directly sown rice; details: soil treatment, treatment dosage 315 g/ha
How it was run: as §1

[15] = tested on: crabgrass; test: Test Example 3: weedkilling efficacy through soil treatment; D: crabgrass; details: soil treatment, treatment dosage 315 g/ha
How it was run: as §1

[16] = tested on: catchweed; test: Test Example 3: weedkilling efficacy through soil treatment; O: catchweed; details: soil treatment, treatment dosage 315 g/ha
Description: as §2, §3, §4, §5

[17] = tested on: chickweed; test: Test Example 3: weedkilling efficacy through soil treatment; N: chickweed; details: soil treatment, treatment dosage 315 g/ha
How it was run: as §1

[18] = tested on: Indian mallow; test: Test Example 3: weedkilling efficacy through soil treatment; K: Indian mallow; details: soil treatment, treatment dosage 315 g/ha
How it was run: as §1

[19] = tested on: green foxtail; test: Test Example 3: weedkilling efficacy through soil treatment; E: green foxtail; details: soil treatment, treatment dosage 315 g/ha
How it was run: as §1

[20] = tested on: transplanted rice; test: Test Example 1: preemergent weed treatment in the submerged state, effect on crop; a: transplanted rice; details: treatment dosage 252 g/ha
How it was run: as §6

[21] = tested on: beet; test: Test Example 3: soil treatment, effect on crop; f: beet; details: soil treatment, treatment dosage 315 g/ha
How it was run: as §1

[22] = tested on: wild oat; test: Test Example 3: weedkilling efficacy through soil treatment; G: wild oat; details: soil treatment, treatment dosage 315 g/ha
How it was run: as §1

[23] = tested on: bulrush; test: Test Example 2: weedkilling efficacy, growth period weed treatment in the submerged state; B: bulrush; details: treatment dosage 252 g/ha
How it was run: as §7

[24] = tested on: oval-leafed pondweed; test: Test Example 2: weedkilling efficacy, growth period weed treatment in the submerged state; C: oval-leafed pondweed; details: treatment dosage 252 g/ha
How it was run: as §7

[25] = tested on: corn; test: Test Example 3: soil treatment, effect on crop; c: corn; details: soil treatment, treatment dosage 315 g/ha
How it was run: as §1

Question: `CC(C)(C(=O)Nc1ccnc(Cl)n1)N1COCN(c2ccccc2)C1=O` [A-1-20] was tested. Which “H: black-grass, weedkilling efficacy grade” value (shortened to “H: black-grass”) ([1]; treatment dosage 80 g/ha) did it give?
Answer: 5 (weed kill ratio 90% or more, (practically complete withering))

Question: What about the “g: rapeseed, effect on crop grade” value [2] of the same compound?
Answer: 1 (weed kill ratio 5% or more, less than 20%)

Question: And the “e: wheat, effect on crop grade” value ([3]; treatment dosage 80 g/ha)?
Answer: 1 (weed kill ratio 5% or more, less than 20%)

Question: What about the “I: Italian ryegrass, weedkilling efficacy grade” value (“I: Italian ryegrass” for short) ([4]; treatment dosage 80 g/ha) of the same compound?
Answer: 5 (weed kill ratio 90% or more, (practically complete withering))

Question: And the “J: common wind-grass, weedkilling efficacy grade” value (“J: common wind-grass” for short) [5]?
Answer: 5 (weed kill ratio 90% or more, (practically complete withering))

Question: Which “H: black-grass” value ([1]; treatment dosage 80 g/ha) does the source give for `CC(C)(C(=O)Nc1nc(C(F)(F)F)cs1)N1COCN(c2ccccc2)C1=O` [A-1-06] here?
Answer: 5 (weed kill ratio 90% or more, (practically complete withering))

Question: What about the “g: rapeseed, effect on crop grade” value [2] of the same compound?
Answer: 4 (weed kill ratio 70% or more, less than 90%)

Question: What about the “I: Italian ryegrass” value ([4]; treatment dosage 80 g/ha) of the same compound?
Answer: 5 (weed kill ratio 90% or more, (practically complete withering))

Question: What about the “J: common wind-grass” value [5] of the same compound?
Answer: 5 (weed kill ratio 90% or more, (practically complete withering))

Question: For `CC(C)(C(=O)Nc1cc(Cl)nc(Cl)n1)N1COCN(c2ccccc2)C1=O` [A-1-21], which “H: black-grass” value ([1]; treatment dosage 80 g/ha) is on record?
Answer: 4 (weed kill ratio 70% or more, less than 90%)

Question: What about the “g: rapeseed, effect on crop grade” value [2] of the same compound?
Answer: 0 (weed kill ratio 5% or less (practically no effect))

Question: And the “e: wheat, effect on crop grade” value ([3]; treatment dosage 80 g/ha)?
Answer: 0 (weed kill ratio 5% or less (practically no effect))

Question: And the “I: Italian ryegrass” value ([4]; treatment dosage 80 g/ha)?
Answer: 4 (weed kill ratio 70% or more, less than 90%)

Question: And the “J: common wind-grass” value [5]?
Answer: 5 (weed kill ratio 90% or more, (practically complete withering))

Question: How did the “H: black-grass” value ([1]; treatment dosage 80 g/ha) turn out when `CC(C)(C(=O)Nc1cc(C(F)F)cc(Cl)n1)N1COCN(c2ccccc2)C1=O` [A-2-27] was run?
Answer: 5 (weed kill ratio 90% or more, (practically complete withering))

Question: What about the “g: rapeseed, effect on crop grade” value [2] of the same compound?
Answer: 2 (weed kill ratio 20% or more, less than 40%)

Question: And the “e: wheat, effect on crop grade” value ([3]; treatment dosage 80 g/ha)?
Answer: 1 (weed kill ratio 5% or more, less than 20%)

Question: And the “I: Italian ryegrass” value ([4]; treatment dosage 80 g/ha)?
Answer: 5 (weed kill ratio 90% or more, (practically complete withering))

Question: And the “J: common wind-grass” value [5]?
Answer: 5 (weed kill ratio 90% or more, (practically complete withering))

Question: How did the “A: barnyard grass, weed kill grade” value [6] turn out when `Cc1ccnc(NC(=O)C(C)(C)N2COCN(c3ccccc3)C2=O)c1` [A-2-37] was run?
Answer: 5 (weed kill ratio 90% or more, (practically complete withering))

Question: And the “A (barnyard grass) weedkilling efficacy grade” value [7]?
Answer: 5 (weed kill ratio 90% or more, (practically complete withering))

Question: And the “L: redroot pigweed, weedkilling efficacy grade” value [8]?
Answer: 1 (weed kill ratio 5% or more, less than 20%)

Question: And the “d: soybean, effect on crop grade” value [9]?
Answer: 0 (weed kill ratio 5% or less (practically no effect))

Question: And the “M: fig-leafed goosefoot, weedkilling efficacy grade” value [10]?
Answer: 3 (weed kill ratio 40% or more, less than 70%)

Question: What about the “H: black-grass” value ([1]; treatment dosage 315 g/ha) of the same compound?
Answer: 3 (weed kill ratio 40% or more, less than 70%)

Question: What about the “C: oval-leafed pondweed, weed kill grade” value [11] of the same compound?
Answer: 5 (weed kill ratio 90% or more, (practically complete withering))

Question: And the “P: birds-eye speedwell, weedkilling efficacy grade” value [12]?
Answer: 5 (weed kill ratio 90% or more, (practically complete withering))

Question: And the “B: bulrush, weed kill grade” value [13]?
Answer: 5 (weed kill ratio 90% or more, (practically complete withering))

Question: What about the “b: directly sown rice, effect on crop grade” value [14] of the same compound?
Answer: 2 (weed kill ratio 20% or more, less than 40%)

Question: And the “D: crabgrass, weedkilling efficacy grade” value [15]?
Answer: 5 (weed kill ratio 90% or more, (practically complete withering))

Question: What about the “O: catchweed, weedkilling efficacy grade” value [16] of the same compound?
Answer: 0 (weed kill ratio 5% or less (practically no effect))

Question: And the “N: chickweed, weedkilling efficacy grade” value [17]?
Answer: 1 (weed kill ratio 5% or more, less than 20%)

Question: What about the “K: Indian mallow, weedkilling efficacy grade” value [18] of the same compound?
Answer: 0 (weed kill ratio 5% or less (practically no effect))

Question: What about the “E: green foxtail, weedkilling efficacy grade” value [19] of the same compound?
Answer: 4 (weed kill ratio 70% or more, less than 90%)

Question: And the “a: transplanted rice, effect on crop grade” value [20]?
Answer: 0 (weed kill ratio 5% or less (practically no effect))

Question: What about the “f: beet, effect on crop grade” value [21] of the same compound?
Answer: 0 (weed kill ratio 5% or less (practically no effect))

Question: What about the “G: wild oat, weedkilling efficacy grade” value [22] of the same compound?
Answer: 3 (weed kill ratio 40% or more, less than 70%)

Question: And the “B (bulrush) weedkilling efficacy grade” value [23]?
Answer: 5 (weed kill ratio 90% or more, (practically complete withering))

Question: What about the “e: wheat, effect on crop grade” value ([3]; treatment dosage 315 g/ha) of the same compound?
Answer: 0 (weed kill ratio 5% or less (practically no effect))

Question: And the “C (oval-leafed pondweed) weedkilling efficacy grade” value [24]?
Answer: 3 (weed kill ratio 40% or more, less than 70%)

Question: And the “I: Italian ryegrass” value ([4]; treatment dosage 315 g/ha)?
Answer: 5 (weed kill ratio 90% or more, (practically complete withering))

Question: And the “c: corn, effect on crop grade” value [25]?
Answer: 1 (weed kill ratio 5% or more, less than 20%)

Question: How did the “H: black-grass” value ([1]; treatment dosage 80 g/ha) turn out when `CC(C)(C(=O)Nc1cc(Br)ccn1)N1COCN(c2ccccc2)C1=O` [A-2-08] was run?
Answer: 5 (weed kill ratio 90% or more, (practically complete withering))

Question: What about the “g: rapeseed, effect on crop grade” value [2] of the same compound?
Answer: 0 (weed kill ratio 5% or less (practically no effect))

Question: And the “e: wheat, effect on crop grade” value ([3]; treatment dosage 80 g/ha)?
Answer: 0 (weed kill ratio 5% or less (practically no effect))

Question: What about the “I: Italian ryegrass” value ([4]; treatment dosage 80 g/ha) of the same compound?
Answer: 5 (weed kill ratio 90% or more, (practically complete withering))

Question: And the “J: common wind-grass” value [5]?
Answer: 5 (weed kill ratio 90% or more, (practically complete withering))
